Results taken from article PMC11272821, “Mechanistic safety assessment via multi-omic characterisation of systemic pathway perturbations following in vivo MAT2A inhibition” (Archives of Toxicology, 2024).

Assays:
Type in all cases: cell-based
[1] = target: NaV1.5 (Homo sapiens, UniProt Q14524); experiment: Cardiac ion channel panel; settings: Full curve
Description: (§1) Full curve IC50 (µM) for hERG (human ether-a-go-go-related gene) and the cardiac ion channel panel (sodium and potassium ion channels; Nav1.5, IKs, Kv4.3), along with the L-type Calcium channel (Cav-1.2 Ver; verapamil, DIL; diltiazem), HepG2 C3A 3D spheroids, HepG2 C3A (2D cultures in glucose or galactose media), and THP1 cytotoxicity.

[2] = target: Kv4.3 (Homo sapiens, UniProt Q9UK17); experiment: Cardiac ion channel panel; settings: Full curve
Sequence of Kv4.3 (Q9UK17 whole entry): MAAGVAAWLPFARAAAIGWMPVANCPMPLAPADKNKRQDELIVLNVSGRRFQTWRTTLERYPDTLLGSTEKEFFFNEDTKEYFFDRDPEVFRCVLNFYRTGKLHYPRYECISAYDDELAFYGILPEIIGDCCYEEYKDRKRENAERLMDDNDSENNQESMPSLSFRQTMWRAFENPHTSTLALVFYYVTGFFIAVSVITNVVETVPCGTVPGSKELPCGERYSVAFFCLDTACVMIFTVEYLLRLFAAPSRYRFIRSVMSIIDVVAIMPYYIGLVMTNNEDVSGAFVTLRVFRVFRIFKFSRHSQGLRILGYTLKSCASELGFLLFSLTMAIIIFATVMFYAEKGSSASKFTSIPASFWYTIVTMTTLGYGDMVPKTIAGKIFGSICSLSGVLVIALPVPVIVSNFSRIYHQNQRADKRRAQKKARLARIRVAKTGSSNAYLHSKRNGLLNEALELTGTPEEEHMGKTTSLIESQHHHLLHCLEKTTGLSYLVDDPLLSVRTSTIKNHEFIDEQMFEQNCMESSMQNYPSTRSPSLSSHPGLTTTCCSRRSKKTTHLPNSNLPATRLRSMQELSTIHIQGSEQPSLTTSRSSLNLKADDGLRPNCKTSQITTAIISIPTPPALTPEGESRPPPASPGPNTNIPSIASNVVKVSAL
Description: as §1

[3] = target: IKs (Homo sapiens, UniProt P51787); experiment: Cardiac ion channel panel; settings: Full curve
Sequence of IKs (P51787 whole entry): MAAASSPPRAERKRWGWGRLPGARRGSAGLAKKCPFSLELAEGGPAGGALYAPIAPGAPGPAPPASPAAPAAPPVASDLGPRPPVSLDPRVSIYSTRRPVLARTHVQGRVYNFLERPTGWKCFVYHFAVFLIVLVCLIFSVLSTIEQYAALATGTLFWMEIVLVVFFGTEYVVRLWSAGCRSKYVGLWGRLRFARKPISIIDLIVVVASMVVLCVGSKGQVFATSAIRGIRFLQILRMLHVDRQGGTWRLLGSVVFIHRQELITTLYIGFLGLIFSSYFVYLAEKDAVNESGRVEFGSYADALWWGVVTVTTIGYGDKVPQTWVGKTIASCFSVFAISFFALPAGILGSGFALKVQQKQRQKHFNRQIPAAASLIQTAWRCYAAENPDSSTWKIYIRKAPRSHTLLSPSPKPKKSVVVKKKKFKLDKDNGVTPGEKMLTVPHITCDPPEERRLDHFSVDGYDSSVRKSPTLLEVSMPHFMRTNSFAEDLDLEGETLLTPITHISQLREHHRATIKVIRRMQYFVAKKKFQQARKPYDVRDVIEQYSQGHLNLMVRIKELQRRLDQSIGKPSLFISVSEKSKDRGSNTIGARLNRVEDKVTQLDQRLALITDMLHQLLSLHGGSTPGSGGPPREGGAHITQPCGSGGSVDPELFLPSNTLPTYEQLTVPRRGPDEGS
Description: as §1

[4] = target: T1, Adenosine Transporter (Homo sapiens, UniProt Q99808); experiment: Functional assay
T1 construct: Eurofins
T1 sequence (Q99808 2-456 limits assumed): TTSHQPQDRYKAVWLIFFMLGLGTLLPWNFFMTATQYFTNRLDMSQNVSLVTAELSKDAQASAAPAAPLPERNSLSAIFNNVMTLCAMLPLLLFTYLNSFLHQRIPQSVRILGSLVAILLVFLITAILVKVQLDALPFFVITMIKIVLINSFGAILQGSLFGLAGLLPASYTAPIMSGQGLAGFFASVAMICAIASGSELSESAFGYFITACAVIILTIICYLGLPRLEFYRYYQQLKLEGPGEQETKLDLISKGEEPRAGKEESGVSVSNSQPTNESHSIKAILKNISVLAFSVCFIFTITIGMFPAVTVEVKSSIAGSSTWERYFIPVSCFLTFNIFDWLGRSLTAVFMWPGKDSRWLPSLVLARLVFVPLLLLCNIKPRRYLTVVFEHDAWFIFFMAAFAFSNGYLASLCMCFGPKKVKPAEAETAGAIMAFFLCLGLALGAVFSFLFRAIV
Description: Secondary pharmacology assays were performed at Eurofins using standard experimental techniques against a total of 86 targets across a broad pharmacological space. Assay details along with experimental protocols are described at https://www.eurofinsdiscoveryservices.com. […] Assays measuring substrate turnover or phosphorylation by isolated proteins were used for kinase and enzyme targets, allowing direct determination of the mode of action of the compounds. […] Assays were run in eight points concentration response mode with half log dilutions and IC50, EC50 or Ki (Cheng and Prusoff [1973]) values determined.

Sequence of NaV1.5 (Q14524 whole entry): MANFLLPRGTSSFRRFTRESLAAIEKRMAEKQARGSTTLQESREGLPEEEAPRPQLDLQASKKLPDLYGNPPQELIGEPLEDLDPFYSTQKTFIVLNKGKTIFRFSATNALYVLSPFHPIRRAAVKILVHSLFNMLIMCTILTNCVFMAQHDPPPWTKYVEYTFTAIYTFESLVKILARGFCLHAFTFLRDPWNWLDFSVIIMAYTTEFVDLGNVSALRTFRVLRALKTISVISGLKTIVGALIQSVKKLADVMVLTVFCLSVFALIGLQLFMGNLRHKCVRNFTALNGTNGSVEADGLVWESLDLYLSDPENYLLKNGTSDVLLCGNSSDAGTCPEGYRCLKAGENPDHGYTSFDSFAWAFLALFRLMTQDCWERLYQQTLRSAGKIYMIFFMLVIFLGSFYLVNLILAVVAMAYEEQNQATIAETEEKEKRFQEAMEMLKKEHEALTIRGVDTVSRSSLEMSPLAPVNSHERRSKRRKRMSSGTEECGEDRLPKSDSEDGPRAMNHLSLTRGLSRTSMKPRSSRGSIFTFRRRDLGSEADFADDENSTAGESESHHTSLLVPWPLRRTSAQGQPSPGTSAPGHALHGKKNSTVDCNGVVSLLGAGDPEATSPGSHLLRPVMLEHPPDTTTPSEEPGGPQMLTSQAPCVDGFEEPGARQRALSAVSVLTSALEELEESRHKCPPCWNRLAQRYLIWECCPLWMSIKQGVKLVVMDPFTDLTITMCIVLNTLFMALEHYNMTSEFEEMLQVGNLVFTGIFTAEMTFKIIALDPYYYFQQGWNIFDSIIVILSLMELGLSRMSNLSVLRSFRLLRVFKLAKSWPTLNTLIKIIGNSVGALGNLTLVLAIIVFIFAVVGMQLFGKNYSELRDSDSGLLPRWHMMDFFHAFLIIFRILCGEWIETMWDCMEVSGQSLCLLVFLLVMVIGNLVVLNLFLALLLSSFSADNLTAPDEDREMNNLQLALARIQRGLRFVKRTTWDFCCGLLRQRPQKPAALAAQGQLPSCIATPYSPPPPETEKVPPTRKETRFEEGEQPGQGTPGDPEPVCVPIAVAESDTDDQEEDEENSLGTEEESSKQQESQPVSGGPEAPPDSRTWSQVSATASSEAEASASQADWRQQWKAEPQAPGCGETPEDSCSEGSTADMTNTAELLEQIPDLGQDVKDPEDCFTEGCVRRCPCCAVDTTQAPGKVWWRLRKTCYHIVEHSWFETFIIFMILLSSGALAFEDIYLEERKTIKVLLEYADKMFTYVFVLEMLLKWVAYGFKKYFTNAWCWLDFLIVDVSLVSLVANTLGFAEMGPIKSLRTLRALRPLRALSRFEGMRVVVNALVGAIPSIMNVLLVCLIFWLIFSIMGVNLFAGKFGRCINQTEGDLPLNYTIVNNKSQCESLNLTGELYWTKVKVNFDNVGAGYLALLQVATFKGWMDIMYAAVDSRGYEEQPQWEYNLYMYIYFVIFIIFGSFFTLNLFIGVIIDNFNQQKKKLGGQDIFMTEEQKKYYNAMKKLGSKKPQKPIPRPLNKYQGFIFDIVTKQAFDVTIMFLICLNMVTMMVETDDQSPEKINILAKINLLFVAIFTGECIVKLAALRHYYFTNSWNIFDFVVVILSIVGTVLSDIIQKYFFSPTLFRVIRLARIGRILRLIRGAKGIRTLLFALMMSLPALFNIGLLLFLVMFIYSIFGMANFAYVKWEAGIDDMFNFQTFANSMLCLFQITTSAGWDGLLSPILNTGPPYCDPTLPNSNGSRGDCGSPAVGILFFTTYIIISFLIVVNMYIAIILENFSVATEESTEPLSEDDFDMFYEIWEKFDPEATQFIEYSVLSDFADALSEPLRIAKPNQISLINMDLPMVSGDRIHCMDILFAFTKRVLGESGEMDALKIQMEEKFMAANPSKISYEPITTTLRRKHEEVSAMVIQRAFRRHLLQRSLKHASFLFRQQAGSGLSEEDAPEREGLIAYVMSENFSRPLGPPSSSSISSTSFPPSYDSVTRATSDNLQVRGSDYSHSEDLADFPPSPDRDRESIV

Q: What does the source list for `Cn1cc2cc(-c3cc4[nH]nc(C5CC5)c4n(-c4ccc(OC(F)F)cc4)c3=O)ccc2n1` [AZ’9567]?
A: IC50 [1]: > 40 µM; IC50 [2]: > 40 µM; IC50 [3]: > 33.3 µM; Pharmacological mode of action [4]: Antagonist
